Laboratory results from patent US6716809B1, “Mage-A3 peptides presented by HLA class molecules” (priority 1997, dated 2004).

Columns and labels:
LB1158 CD4+ clone 22 = test: IFN-γ production by CD4+ clone 22 stimulated with peptide- or protein-pulsed EBV-B cells; format: cell-based, human; conditions: for IFN-γ production by clone 22: HLA-DR13 EBV-B cells; for recognition of short peptide by clone 22: conclusion from Table V
Method: (§1) In order to confirm the efficacy of this protocol, dendritic cells were fed with the MAGE-3 protein, using conditions described above, to stimulate autologous CD4^+ T lymphocytes from hemochromatosis patient LB1158 or from melanoma patient 7002. After four restimulations, the specific production of IFN-γ by an aliquot of each of the microcultures stimulated with the autologous EBV-B cells loaded with MAGE-A3 were tested on day 35 for patient LB1158 and day 37 for patient 7002. For each individual, one positive microculture was cloned using autologous EBV-B cells as stimulating cells, either retrotransduced with MFG Ii MAGE-A3 for LB1158, or fed with protein MAGE-A3 for patient 7002. […] Specifically, autologous EBV-B cells were incubated for 20 h in the presence of 20 μg/ml of recombinant His-MAGE-A3 protein. Clone 22 (2500 cells) was incubated overnight with 5000 MAGE-A3 loaded EBV-B cells in round botton microwells in the presence or absence of monoclonal antibodies which recognize HLA-A,B,C (W6/32) or HLA-DR (2B6). IFN-γ secretion was measured after 20 h by ELISA (FIG. 15A).
(§2) Peptides corresponding to parts of MAGE-A3 (e.g., MAGE107-122, MAGE111-126, MAGE115-130, MAGE119-134) were tested for recognition by clone 2 and 22. HLA-DR13 EBV-B cells were pulsed for 2 h with different concentrations of these peptides. Clones 2 and 37 (2500 cells) were incubated with 5000 peptide pulsed cells in round-bottomed microwells for 20 h and assayed for IFN-γ production.
(§3) Autologous or allogeneic EBV-B cells were pulsed for 2 h with 1 μg/ml MAGE-A3119-134 peptide, and then washed. Clones 2 or 22 were incubated with 5000 peptide-pulsed EBV-B cells in round-bottomed microwells for 20 h and the clones' reactivity to the EBV-B cells was measured by ELISA as IFN-γ secretion. Experiments were performed in triplicate.
(§4) Unlike HLA-class I-restricted peptides, class II-restricted peptides usually vary in length and tolerate extensions at both the amino and carboxy termini, because they are not fixed by their ends in the groove. It is therefore difficult to define precisely the length of the antigenic peptide. Therefore a large number of MAGE-A3 peptides were tested at different concentrations (Tables IV and V). […] 2500 cells of clone 37 were then cocultured for 20 h in round-bottomed microwells with 5000 peptide-pulsed cells. IFN-γ released in the supernatant of the cocultures was measured in an ELISA assay. The experiments were performed in triplicate. […] Clones 2 and 22 (2500 cells) were then cocultured for 20 h in round-bottomed microwells with 5000 peptide-pulsed cells. IFN-γ released in the supernatant of the cocultures was measured in an ELISA assay. The experiments was performed twice in duplicates.

7002 CD4+ clone 2 = test: IFN-γ production by CD4+ clone 2 stimulated with peptide- or protein-pulsed EBV-B cells; format: cell-based, human; conditions: for IFN-γ production by clone 2: HLA-DR13 EBV-B cells; for recognition of short peptide by clone 2: conclusion from Table V
Method: as §1, §2, §3, §4

[1] = peptide concentration 100 ng/ml
[2] = peptide concentration 300 ng/ml
[3] = peptide concentration 1000 ng/ml

Sequence	IFN-γ production by clone 22 (LB1158 CD4+ clone 22; peptide concentration 1 ng/ml) [pg/mL]	IFN-γ production by clone 22 (LB1158 CD4+ clone 22; peptide concentration 3 ng/ml) [pg/mL]	IFN-γ production by clone 22 (LB1158 CD4+ clone 22; peptide concentration 10 ng/ml) [pg/mL]	IFN-γ production by clone 22 (LB1158 CD4+ clone 22; peptide concentration 30 ng/ml) [pg/mL]	IFN-γ production by clone 22 (LB1158 CD4+ clone 22; [1]) [pg/mL]	IFN-γ production by clone 22 (LB1158 CD4+ clone 22; [2]) [pg/mL]	IFN-γ production by clone 22 (LB1158 CD4+ clone 22; [3]) [pg/mL]	IFN-γ production by clone 2 (7002 CD4+ clone 2; peptide concentration 1 ng/ml) [pg/mL]	IFN-γ production by clone 2 (7002 CD4+ clone 2; peptide concentration 3 ng/ml) [pg/mL]	IFN-γ production by clone 2 (7002 CD4+ clone 2; peptide concentration 10 ng/ml) [pg/mL]	IFN-γ production by clone 2 (7002 CD4+ clone 2; peptide concentration 30 ng/ml) [pg/mL]	IFN-γ production by clone 2 (7002 CD4+ clone 2; [1]) [pg/mL]	IFN-γ production by clone 2 (7002 CD4+ clone 2; [2]) [pg/mL]	IFN-γ production by clone 2 (7002 CD4+ clone 2; [3]) [pg/mL]	recognition of short peptide by clone 22 (LB1158 CD4+ clone 22)	recognition of short peptide by clone 2 (7002 CD4+ clone 2)
LKYRAREPVTKAE (listed as Homo sapiens)	0	25	223	567	1029	1475	2004	0	0	79	386	1324	2544	2755		
LLLKYRAREPVTKAE (listed as Homo sapiens)	718	965	1440	1832	1679	1739	2214	169	639	2028	2532	2857	3124	3033		
FLLLKYRAREP (listed as Homo sapiens)	0	0	1	7	6	7	30	0	0	0	0	85	0	23		
FLLLKYRAREPV (listed as Homo sapiens)	0	3	13	132	383	746	1353	0	4	78	216	821	1632	2667		
KYRAREPVTKAE (listed as Homo sapiens)	0	5	0	5	16	135	542	0	0	0	0	0	0	50		
FLLLKYRAREPVT (listed as Homo sapiens)	291	584	1099	1635	1510	1834	2183	114	370	1437	2003	2951	2860	3079	well recognized	well recognized
FLLLKYRAREPVTK (listed as Homo sapiens)	0	0	1	10	28	115	453	0	0	0	0	85	0	0		
LLKYRAREPVTKAE (listed as Homo sapiens)	262	638	1073	1651	1736	1826	2225	40	303	1419	2012	2918	3186	3078	well recognized	well recognized
FLLLKYRAREPVTKA (listed as Homo sapiens)	283	1294	1619	1775	1854	1965	2180	245	865	1753	2713	2871	3354	3314		
